From ChEMBL document CHEMBL1201862, “PubChem BioAssay data set” (2004)
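Briefly, cells in 96-well plates were exposed to five compound concentrations for 48 h, and endpoints were estimated by linear interpolation. At the GI50, growth is halved.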 Calls of active or inactive are those of the source. No stated cut-off is given here; in the data, active = GI50 up to about 1.1 µM and inactive = higher.

Columns and labels:
Test in all cases: NCI anticancer screen, dose series, 48 h
SN12C = test system: SN12C
HCT-116 = test system: HCT-116
OVCAR-3 = test system: OVCAR-3
RPMI-8226 = test system: RPMI-8226
SK-MEL-28 = test system: SK-MEL-28
MOLT-4 = test system: MOLT-4
SR = test system: SR
K562 = test system: K562
DMS-114 = test system: DMS-114
A549 = test system: A549
SNB-78 = test system: SNB-78
786-0 = test system: 786-0
A498 = test system: A498
M19-MEL = test system: M19-MEL
UACC-257 = test system: UACC-257
NCI-H522 = test system: NCI-H522
CCRF-CEM = test system: CCRF-CEM
KM12 = test system: KM12

SMILES	GI50 (SN12C)	GI50 (HCT-116)	GI50 (OVCAR-3)	GI50 (RPMI-8226)	GI50 (SK-MEL-28)	GI50 (MOLT-4)	GI50 (SR)	GI50 (K562)	GI50 (DMS-114)	GI50 (A549)	GI50 (SNB-78)	GI50 (786-0)	GI50 (A498)	GI50 (M19-MEL)	GI50 (UACC-257)	GI50 (NCI-H522)	GI50 (CCRF-CEM)	GI50 (KM12)
N#Cc1c2c(c(Cl)n3c1nc1ccccc13)CCCC2	2.09 µM (inactive)	2.75 µM (inactive)	6.5 µM (inactive)	1.7 µM (inactive)	1.99 µM (inactive)	3.89 µM (inactive)	2.38 µM (inactive)	2.5 µM (inactive)	1.86 µM (inactive)	4.25 µM (inactive)	3.89 µM (inactive)	1.77 µM (inactive)	11.4 µM (inactive)	3.61 µM (inactive)	2.05 µM (inactive)	–	–	–
CCc1cccc(=O)c([O-])c1.CCc1cccc(=O)c([O-])c1.[Bi+3].[Cl-]	10.2 µM (inactive)	7.45 µM (inactive)	5.92 µM (inactive)	–	5.14 µM (inactive)	2.22 µM (inactive)	3.71 µM (inactive)	2.81 µM (inactive)	3.01 µM (inactive)	8.97 µM (inactive)	7.19 µM (inactive)	9.1 µM (inactive)	15 µM (inactive)	6.98 µM (inactive)	6.58 µM (inactive)	1.79 µM (inactive)	1.91 µM (inactive)	12.4 µM (inactive)
NC1=NC(=O)/C(=C/c2ccccc2[N+](=O)[O-])C(N)=N1	> 100 µM (inactive)	> 100 µM (inactive)	> 100 µM (inactive)	> 100 µM (inactive)	> 100 µM (inactive)	> 100 µM (inactive)	> 100 µM (inactive)	> 100 µM (inactive)	> 100 µM (inactive)	> 100 µM (inactive)	> 100 µM (inactive)	> 100 µM (inactive)	–	> 100 µM (inactive)	> 100 µM (inactive)	> 100 µM (inactive)	> 100 µM (inactive)	> 100 µM (inactive)
C=CCN(CC=C)CC(C(C)=O)C(c1ccccc1)c1c(O)c2ccccc2oc1=O (stereo unspecified)	> 100 µM (inactive)	> 100 µM (inactive)	–	> 100 µM (inactive)	> 100 µM (inactive)	> 100 µM (inactive)	> 100 µM (inactive)	> 100 µM (inactive)	> 100 µM (inactive)	> 100 µM (inactive)	> 100 µM (inactive)	> 100 µM (inactive)	> 100 µM (inactive)	> 100 µM (inactive)	> 100 µM (inactive)	82.4 µM (inactive)	> 100 µM (inactive)	19 µM (inactive)
CCOc1ccccc1NC(=O)CC1SC(Nc2ccc([N+](=O)[O-])cc2)=NC1=O (stereo unspecified)	20.4 µM (inactive)	15.3 µM (inactive)	14.5 µM (inactive)	6.95 µM (inactive)	25.3 µM (inactive)	19 µM (inactive)	–	–	13.1 µM (inactive)	18.5 µM (inactive)	28.8 µM (inactive)	16.7 µM (inactive)	–	25.4 µM (inactive)	17.3 µM (inactive)	–	17.2 µM (inactive)	18.7 µM (inactive)
CCOc1ccccc1NC(=O)C1=C(C)NC(C)=C(C(=O)Nc2ccccc2OCC)C1c1ccc2c(c1)OCO2	38.7 µM (inactive)	–	17 µM (inactive)	17.4 µM (inactive)	35.2 µM (inactive)	12.1 µM (inactive)	–	6.01 µM (inactive)	16.9 µM (inactive)	28.2 µM (inactive)	24.6 µM (inactive)	41.3 µM (inactive)	34.9 µM (inactive)	30.1 µM (inactive)	22 µM (inactive)	9.89 µM (inactive)	24.2 µM (inactive)	11.8 µM (inactive)
COC(=O)N1C=CC2=C(C)C3Nc4ccccc4C3C(C)=C2C1 (stereo unspecified)	–	0.643 µM (active)	0.923 µM (active)	0.804 µM (active)	7.29 µM (inactive)	0.234 µM (active)	–	2.09 µM (inactive)	23 µM (inactive)	1.69 µM (inactive)	0.546 µM (active)	0.54 µM (active)	16.2 µM (inactive)	2.78 µM (inactive)	3.21 µM (inactive)	1.49 µM (inactive)	0.726 µM (active)	–
Cc1ccc(C(=O)/C=C2\Nc3c(c(=O)oc4ccccc34)N=C2NC23CC4CC(CC(C4)C2)C3)cc1	> 100 µM (inactive)	> 100 µM (inactive)	> 100 µM (inactive)	> 100 µM (inactive)	> 100 µM (inactive)	> 100 µM (inactive)	> 100 µM (inactive)	> 100 µM (inactive)	> 100 µM (inactive)	> 100 µM (inactive)	–	> 100 µM (inactive)	–	> 100 µM (inactive)	> 100 µM (inactive)	> 100 µM (inactive)	> 100 µM (inactive)	> 100 µM (inactive)
CN(C)CCNC(=O)c1ccc(Cl)c2c(Nc3ccc(S(=O)(=O)N=C(N)N)cc3)c3ccccc3nc12	3.15 µM (inactive)	3.9 µM (inactive)	12.4 µM (inactive)	–	11.2 µM (inactive)	0.358 µM (active)	0.54 µM (active)	2.77 µM (inactive)	0.993 µM (active)	3.33 µM (inactive)	12.1 µM (inactive)	14.3 µM (inactive)	–	3.86 µM (inactive)	–	0.603 µM (active)	1.69 µM (inactive)	4.21 µM (inactive)
CC1(C)C(=O)N(CCCCCCN2C(=O)C(C)(C)c3ccccc32)c2ccccc21	59.7 µM (inactive)	21 µM (inactive)	28 µM (inactive)	23 µM (inactive)	47.2 µM (inactive)	33.8 µM (inactive)	–	22.6 µM (inactive)	21.6 µM (inactive)	43.4 µM (inactive)	96.4 µM (inactive)	18.2 µM (inactive)	> 100 µM (inactive)	22.6 µM (inactive)	21.8 µM (inactive)	–	22.4 µM (inactive)	37.9 µM (inactive)
CCOC(=O)C(=O)Nc1ccccc1C(C)C	> 100 µM (inactive)	> 100 µM (inactive)	> 100 µM (inactive)	> 100 µM (inactive)	> 100 µM (inactive)	> 100 µM (inactive)	> 100 µM (inactive)	> 100 µM (inactive)	> 100 µM (inactive)	> 100 µM (inactive)	–	> 100 µM (inactive)	> 100 µM (inactive)	> 100 µM (inactive)	> 100 µM (inactive)	> 100 µM (inactive)	> 100 µM (inactive)	> 100 µM (inactive)
C1=C2/CC[C@H](Sc3ccccc3)[C@H]2C2(CCCCC/1)OCCO2	> 100 µM (inactive)	39.8 µM (inactive)	27.7 µM (inactive)	24.4 µM (inactive)	> 100 µM (inactive)	–	42.9 µM (inactive)	32.1 µM (inactive)	–	51.8 µM (inactive)	94 µM (inactive)	40.2 µM (inactive)	–	25.1 µM (inactive)	20.2 µM (inactive)	17.9 µM (inactive)	24.5 µM (inactive)	29.9 µM (inactive)
COc1ccc(CN2C(=O)C(Cc3cc(OC)c(OC)c(C)c3OC)NC(=O)/C2=C/c2cc(OC)c(OC)c(C)c2OC)cc1 (stereo unspecified)	27.5 µM (inactive)	26.4 µM (inactive)	26.1 µM (inactive)	28.3 µM (inactive)	59.8 µM (inactive)	24.8 µM (inactive)	20.3 µM (inactive)	33 µM (inactive)	33.2 µM (inactive)	37.1 µM (inactive)	–	48.4 µM (inactive)	49.4 µM (inactive)	19.3 µM (inactive)	37.5 µM (inactive)	18.5 µM (inactive)	27 µM (inactive)	38.8 µM (inactive)
COC(=O)C1=CC2C=CC(C1C(=O)OC)C1C(C(=O)OC)=C(C(=O)OC)C(C(=O)OC)=C(C(=O)OC)C21OC (stereo unspecified)	> 100 µM (inactive)	> 100 µM (inactive)	> 100 µM (inactive)	> 100 µM (inactive)	> 100 µM (inactive)	> 100 µM (inactive)	> 100 µM (inactive)	–	> 100 µM (inactive)	> 100 µM (inactive)	> 100 µM (inactive)	> 100 µM (inactive)	> 100 µM (inactive)	> 100 µM (inactive)	> 100 µM (inactive)	> 100 µM (inactive)	–	–
COc1ccc2cccc(C(=O)c3ccc(C)c4c3CCC4)c2c1	71.9 µM (inactive)	37.7 µM (inactive)	35.2 µM (inactive)	–	> 100 µM (inactive)	27.6 µM (inactive)	23.6 µM (inactive)	30.8 µM (inactive)	32.4 µM (inactive)	49.9 µM (inactive)	–	24.8 µM (inactive)	34.1 µM (inactive)	37.8 µM (inactive)	30.1 µM (inactive)	22.5 µM (inactive)	26.2 µM (inactive)	26.1 µM (inactive)
O=S1(=O)N2CN3CN(C2)CN1C3	34.9 µM (inactive)	21.6 µM (inactive)	> 10 µM (inactive)	28.7 µM (inactive)	> 83.6 µM (inactive)	105 µM (inactive)	–	> 31.6 µM (inactive)	23.7 µM (inactive)	280 µM (inactive)	28.1 µM (inactive)	30.5 µM (inactive)	223 µM (inactive)	62.1 µM (inactive)	30.1 µM (inactive)	177 µM (inactive)	> 31.6 µM (inactive)	93.8 µM (inactive)
O=C1c2cccc3cccc(c23)C(=O)N1CCN(CCO)CCO	25.4 µM (inactive)	16.9 µM (inactive)	33.8 µM (inactive)	12.9 µM (inactive)	35.8 µM (inactive)	24.2 µM (inactive)	11.3 µM (inactive)	25.5 µM (inactive)	–	27.2 µM (inactive)	42.1 µM (inactive)	40.6 µM (inactive)	17.3 µM (inactive)	21.5 µM (inactive)	22.5 µM (inactive)	–	30.3 µM (inactive)	29.5 µM (inactive)
